pIC50: −log10 of the molar value.
Tests used:
Type in all cases: cell-based
[1] = molecular target: AXL (phospho-AXL, Gas6-stimulated A-172 glioblastoma cells) (Homo sapiens (Human), UniProt P30530); test: AXL autophosphorylation ELISA in A-172 cells (Example E); details: cellular activity; AXL autophosphorylation ELISA in A-172 cells; read-out: Axl IC50
Method in brief: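 Phospho-AXL was measured by ELISA in lysates of Gas6-stimulated A-172 cells, starved 24 h in serum-free medium and exposed 1 h to an 8-point compound dilution at 0.3% DMSO.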

[2] = molecular target: KDR (phospho-KDR, VEGF165-stimulated HUVEC cells) (Homo sapiens (Human), UniProt P35968); test: KDR autophosphorylation ELISA in HUVEC cells (Example G); details: cellular activity; KDR autophosphorylation ELISA in HUVEC cells
Method in brief: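 Read-out is phospho-KDR measured by ELISA in lysates of VEGF165-stimulated (100 ng/mL, 5 min) HUVEC that were serum-starved 24 h and then pre-exposed 1 h to compound across 8 doses in 0.3% DMSO. Unstimulated lysates defined 0% and stimulated vehicle lysates 100% activity; IC50 values come from 4-parameter logistic regression.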

[3] = molecular target: Mer (phospho-Mer, MERTK-transfected 293A cells) (Homo sapiens (Human), UniProt Q12866); test: Mer autophosphorylation ELISA in transient transfected 293A cells (Example H); details: cellular activity; Mer autophosphorylation ELISA in transient transfected 293A cells
Method in brief: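 IC50 from 4-parameter logistic fit of phospho-Mer levels, quantified by ELISA against a phospho-Mer standard in lysates of MERTK-transfected 293A cells. Cells exposed 1 h to 8-point serial dilutions, serum-free, 0.3% DMSO; controls: DMSO (100%) and reference inhibitor (0%).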

[4] = molecular target: Met (phospho-Met, HGF-stimulated PC-3 prostate cancer cells) (Homo sapiens (Human), UniProt P08581); test: Met autophosphorylation ELISA in PC-3 cells (Example F); details: cellular activity; Met autophosphorylation ELISA in PC-3 cells; read-out: c-Met IC50
Method in brief: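 Sandwich ELISA for phospho-Met (panTyr) in PC-3 lysates. Cells starved 3 h serum-free, compound 1 h (8-pt curve, 0.3% DMSO), HGF 100 ng/mL 10 min. 100% = HGF + DMSO; 0% = HGF + reference inhibitor. IC50 by 4-parameter fit.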

Met (phospho-Met, HGF-stimulated PC-3 prostate cancer cells), sequence (P08581 25-1390): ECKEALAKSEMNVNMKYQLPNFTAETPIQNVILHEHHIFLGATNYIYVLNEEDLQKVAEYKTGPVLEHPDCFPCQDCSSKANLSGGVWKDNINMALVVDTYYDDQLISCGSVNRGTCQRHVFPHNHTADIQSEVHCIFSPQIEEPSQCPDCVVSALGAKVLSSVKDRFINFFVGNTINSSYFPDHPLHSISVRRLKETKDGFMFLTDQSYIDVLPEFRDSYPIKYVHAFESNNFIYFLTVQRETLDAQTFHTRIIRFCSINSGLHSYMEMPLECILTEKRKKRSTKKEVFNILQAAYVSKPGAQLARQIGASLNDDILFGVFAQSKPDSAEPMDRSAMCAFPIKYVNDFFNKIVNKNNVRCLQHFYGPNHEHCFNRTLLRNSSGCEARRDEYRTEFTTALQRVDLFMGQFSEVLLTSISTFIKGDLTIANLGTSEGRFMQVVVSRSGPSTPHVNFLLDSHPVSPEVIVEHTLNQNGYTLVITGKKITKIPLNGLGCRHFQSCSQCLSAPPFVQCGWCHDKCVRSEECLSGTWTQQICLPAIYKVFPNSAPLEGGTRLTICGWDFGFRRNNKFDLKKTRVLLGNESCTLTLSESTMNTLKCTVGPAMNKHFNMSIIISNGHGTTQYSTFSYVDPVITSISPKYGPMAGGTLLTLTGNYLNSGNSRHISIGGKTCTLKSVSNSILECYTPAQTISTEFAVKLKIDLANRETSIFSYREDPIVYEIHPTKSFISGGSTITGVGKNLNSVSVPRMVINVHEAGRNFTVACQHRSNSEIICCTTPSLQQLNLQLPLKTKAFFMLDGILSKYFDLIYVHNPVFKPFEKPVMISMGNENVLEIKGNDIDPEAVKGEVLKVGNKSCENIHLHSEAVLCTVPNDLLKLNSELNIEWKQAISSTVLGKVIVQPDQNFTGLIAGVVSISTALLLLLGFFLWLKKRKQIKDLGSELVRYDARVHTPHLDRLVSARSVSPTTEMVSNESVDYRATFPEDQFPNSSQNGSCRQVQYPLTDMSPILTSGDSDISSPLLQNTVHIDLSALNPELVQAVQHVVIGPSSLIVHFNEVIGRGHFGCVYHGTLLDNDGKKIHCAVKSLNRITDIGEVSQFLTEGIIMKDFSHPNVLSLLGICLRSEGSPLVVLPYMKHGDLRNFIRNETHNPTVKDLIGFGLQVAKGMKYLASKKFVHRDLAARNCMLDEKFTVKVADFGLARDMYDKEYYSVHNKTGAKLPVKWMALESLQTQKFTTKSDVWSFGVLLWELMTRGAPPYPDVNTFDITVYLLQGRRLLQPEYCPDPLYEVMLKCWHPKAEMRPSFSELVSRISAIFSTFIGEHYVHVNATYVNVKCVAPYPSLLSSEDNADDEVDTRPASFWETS
Mer (phospho-Mer, MERTK-transfected 293A cells), sequence (Q12866 21-999): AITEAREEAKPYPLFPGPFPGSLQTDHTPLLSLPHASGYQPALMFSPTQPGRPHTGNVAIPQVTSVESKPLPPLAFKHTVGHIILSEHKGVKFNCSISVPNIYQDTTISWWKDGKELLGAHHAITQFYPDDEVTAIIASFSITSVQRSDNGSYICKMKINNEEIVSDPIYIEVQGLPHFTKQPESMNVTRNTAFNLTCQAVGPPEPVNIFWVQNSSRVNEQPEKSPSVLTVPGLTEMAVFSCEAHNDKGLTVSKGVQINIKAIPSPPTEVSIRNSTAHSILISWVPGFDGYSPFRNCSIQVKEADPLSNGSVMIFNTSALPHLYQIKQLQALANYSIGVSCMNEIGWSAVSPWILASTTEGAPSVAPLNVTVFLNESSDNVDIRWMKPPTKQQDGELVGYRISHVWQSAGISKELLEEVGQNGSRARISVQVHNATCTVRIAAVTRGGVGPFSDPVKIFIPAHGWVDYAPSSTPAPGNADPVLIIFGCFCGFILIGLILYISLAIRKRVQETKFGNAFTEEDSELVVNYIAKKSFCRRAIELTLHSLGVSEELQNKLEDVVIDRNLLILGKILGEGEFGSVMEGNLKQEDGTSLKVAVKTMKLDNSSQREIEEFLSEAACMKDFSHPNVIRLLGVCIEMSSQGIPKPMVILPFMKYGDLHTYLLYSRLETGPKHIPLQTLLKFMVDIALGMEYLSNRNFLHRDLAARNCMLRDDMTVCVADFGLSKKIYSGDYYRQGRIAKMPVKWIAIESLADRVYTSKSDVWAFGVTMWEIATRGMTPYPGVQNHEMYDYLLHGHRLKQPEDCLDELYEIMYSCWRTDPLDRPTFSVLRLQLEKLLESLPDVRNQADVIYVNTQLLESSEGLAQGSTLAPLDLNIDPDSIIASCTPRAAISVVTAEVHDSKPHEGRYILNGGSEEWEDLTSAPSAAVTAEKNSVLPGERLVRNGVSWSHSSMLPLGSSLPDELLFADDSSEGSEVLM
KDR (phospho-KDR, VEGF165-stimulated HUVEC cells), sequence (P35968 20-1356): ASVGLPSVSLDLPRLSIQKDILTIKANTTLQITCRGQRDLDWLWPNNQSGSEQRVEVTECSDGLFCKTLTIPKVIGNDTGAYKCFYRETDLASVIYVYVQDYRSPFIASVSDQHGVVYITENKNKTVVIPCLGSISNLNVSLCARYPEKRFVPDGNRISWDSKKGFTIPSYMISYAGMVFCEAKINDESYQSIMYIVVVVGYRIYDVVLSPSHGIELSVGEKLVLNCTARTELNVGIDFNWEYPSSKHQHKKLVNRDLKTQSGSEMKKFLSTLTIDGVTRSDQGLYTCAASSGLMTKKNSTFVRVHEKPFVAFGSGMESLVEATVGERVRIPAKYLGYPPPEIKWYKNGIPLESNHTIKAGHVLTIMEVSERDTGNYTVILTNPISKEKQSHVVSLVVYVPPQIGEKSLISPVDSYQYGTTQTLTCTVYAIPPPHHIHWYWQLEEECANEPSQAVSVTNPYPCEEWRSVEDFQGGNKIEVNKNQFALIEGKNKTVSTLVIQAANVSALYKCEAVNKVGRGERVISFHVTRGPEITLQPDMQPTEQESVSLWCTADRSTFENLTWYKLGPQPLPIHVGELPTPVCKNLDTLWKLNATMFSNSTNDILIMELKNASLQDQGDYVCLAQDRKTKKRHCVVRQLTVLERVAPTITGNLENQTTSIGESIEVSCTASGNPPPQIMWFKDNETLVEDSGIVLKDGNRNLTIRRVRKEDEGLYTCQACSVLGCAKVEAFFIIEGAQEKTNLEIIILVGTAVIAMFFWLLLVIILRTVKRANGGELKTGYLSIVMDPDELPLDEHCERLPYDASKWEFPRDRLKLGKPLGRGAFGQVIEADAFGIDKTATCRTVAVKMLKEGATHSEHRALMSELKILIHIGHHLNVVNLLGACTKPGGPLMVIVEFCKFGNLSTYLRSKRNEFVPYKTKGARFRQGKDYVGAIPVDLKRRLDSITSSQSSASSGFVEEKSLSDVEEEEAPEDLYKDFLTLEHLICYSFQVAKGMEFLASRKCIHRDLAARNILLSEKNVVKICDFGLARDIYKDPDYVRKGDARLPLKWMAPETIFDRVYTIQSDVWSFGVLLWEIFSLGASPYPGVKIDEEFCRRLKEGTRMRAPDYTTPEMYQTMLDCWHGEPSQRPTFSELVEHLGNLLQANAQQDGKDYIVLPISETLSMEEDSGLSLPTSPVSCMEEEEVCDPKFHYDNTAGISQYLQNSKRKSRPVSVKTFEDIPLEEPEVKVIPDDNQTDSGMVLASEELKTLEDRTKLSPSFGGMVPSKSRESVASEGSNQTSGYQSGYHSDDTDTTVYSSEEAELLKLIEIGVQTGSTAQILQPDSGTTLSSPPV
AXL (phospho-AXL, Gas6-stimulated A-172 glioblastoma cells), sequence (P30530 26-894): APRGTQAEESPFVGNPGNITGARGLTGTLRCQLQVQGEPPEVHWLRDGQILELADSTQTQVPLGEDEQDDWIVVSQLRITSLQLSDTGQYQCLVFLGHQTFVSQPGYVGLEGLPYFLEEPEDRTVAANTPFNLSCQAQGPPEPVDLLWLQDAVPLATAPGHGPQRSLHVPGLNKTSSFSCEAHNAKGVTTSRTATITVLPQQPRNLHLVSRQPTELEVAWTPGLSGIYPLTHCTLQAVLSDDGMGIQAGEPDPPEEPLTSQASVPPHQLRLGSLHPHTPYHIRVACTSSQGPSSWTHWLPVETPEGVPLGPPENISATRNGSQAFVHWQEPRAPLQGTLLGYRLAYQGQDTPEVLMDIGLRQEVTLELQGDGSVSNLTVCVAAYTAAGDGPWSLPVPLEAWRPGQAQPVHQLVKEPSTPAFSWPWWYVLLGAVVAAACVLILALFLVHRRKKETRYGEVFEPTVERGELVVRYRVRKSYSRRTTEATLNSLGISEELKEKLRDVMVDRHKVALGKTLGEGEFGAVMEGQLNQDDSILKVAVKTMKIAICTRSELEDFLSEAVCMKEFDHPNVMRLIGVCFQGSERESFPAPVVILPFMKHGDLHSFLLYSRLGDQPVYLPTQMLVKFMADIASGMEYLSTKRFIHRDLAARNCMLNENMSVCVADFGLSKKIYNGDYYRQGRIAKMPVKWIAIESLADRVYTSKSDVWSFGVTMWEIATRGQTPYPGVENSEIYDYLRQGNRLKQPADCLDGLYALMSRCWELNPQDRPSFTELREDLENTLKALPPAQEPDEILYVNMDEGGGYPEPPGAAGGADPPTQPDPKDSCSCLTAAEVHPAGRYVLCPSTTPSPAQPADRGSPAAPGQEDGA

Row | SMILES | pIC50 [1] | pIC50 [2] | pIC50 [3] | pIC50 [4]
1 | COc1cc2nccc(Oc3ccc(NC(=O)c4c(C)n(CCF)cc(-c5ccc(F)cc5)c4=O)cc3F)c2nc1OC [Compound 666, N-[4-[(6,7-dimethoxy-1,5-naphthyridin-4-yl)oxy]-3-fluorophenyl]-1-(2-fluoroethyl)-5-(4-fluorophenyl)-2-methyl-4-oxopyridine-3-carboxamide] | > 7.00 | 6.52 to 7.00 | > 7.00 | > 7.00
2 | CCOCc1nc(C)c(-c2ccc(F)cc2C)c(O)c1C(=O)Nc1ccc(Oc2ccnc3cc(OC)cnc23)c(F)c1 [Compound 667, 2-(ethoxymethyl)-N-[3-fluoro-4-[(7-methoxy-1,5-naphthyridin-4-yl)oxy]phenyl]-5-(4-fluoro-2-methylphenyl)-4-hydroxy-6-methylpyridine-3-carboxamide] | > 7.00 | < 6.52 | > 7.00 | > 7.00
3 | COc1cc2nccc(Oc3ccc(NC(=O)c4cn(C(F)F)c(C)c(-c5ccc(F)cc5)c4=O)cc3F)c2nc1OC [Compound 668, 1-(difluoromethyl)-N-[4-[(6,7-dimethoxy-1,5-naphthyridin-4-yl)oxy]-3-fluorophenyl]-5-(4-fluorophenyl)-6-methyl-4-oxopyridine-3-carboxamide] | > 7.00 | > 7.00 | > 7.00 | > 7.00
4 | COc1cnc2c(Oc3ccc(NC(=O)c4cn(C(F)F)c(C)c(-c5ccc(F)cc5)c4=O)cc3)ccnc2c1 [Compound 669, 1-(difluoromethyl)-5-(4-fluorophenyl)-N-[4-[(7-methoxy-1,5-naphthyridin-4-yl)oxy]phenyl]-6-methyl-4-oxopyridine-3-carboxamide] | > 7.00 | < 6.52 | > 7.00 | > 7.00
5 | COc1cnc2c(Oc3ccc(NC(=O)c4cnc(C)c(-c5ccc(F)c(OC)c5)c4O)cc3F)ccnc2c1 [Compound 670, N-[3-fluoro-4-[(7-methoxy-1,5-naphthyridin-4-yl)oxy]phenyl]-5-(4-fluoro-3-methoxyphenyl)-4-hydroxy-6-methylpyridine-3-carboxamide] | > 7.00 | > 7.00 | > 7.00 | > 7.00
6 | CCOc1nc2c(Oc3ccc(NC(=O)c4c(C)ncc(-c5ccc(F)cc5)c4O)cc3)ccnc2cc1OC [Compound 671, N-[4-[(6-ethoxy-7-methoxy-1,5-naphthyridin-4-yl)oxy]phenyl]-5-(4-fluorophenyl)-4-hydroxy-2-methylpyridine-3-carboxamide] | > 7.00 | > 7.00 | > 7.00 | > 7.00
7 | CCOc1nc2c(Oc3ccc(NC(=O)c4c(COC)nc(C)c(-c5ccc(F)cc5)c4O)cc3)ccnc2cc1OC [Compound 672, N-[4-[(6-ethoxy-7-methoxy-1,5-naphthyridin-4-yl)oxy]phenyl]-5-(4-fluorophenyl)-4-hydroxy-2-(methoxymethyl)-6-methylpyridine-3-carboxamide] | > 7.00 | > 7.00 | > 7.00 | > 7.00
8 | CCOc1nc2c(Oc3ccc(NC(=O)c4cnc(C)c(-c5ccc(F)cc5C)c4O)cc3)ccnc2cc1OC [Compound 673, N-[4-[(6-ethoxy-7-methoxy-1,5-naphthyridin-4-yl)oxy]phenyl]-5-(4-fluoro-2-methylphenyl)-4-hydroxy-6-methylpyridine-3-carboxamide] | > 7.00 | > 7.00 | > 7.00 | > 7.00
9 | CCOc1nc2c(Oc3ccc(NC(=O)c4c(C)nc(C)c(-c5ccc(F)cc5C)c4O)cc3)ccnc2cc1OC [Compound 674, N-[4-[(6-ethoxy-7-methoxy-1,5-naphthyridin-4-yl)oxy]phenyl]-5-(4-fluoro-2-methylphenyl)-4-hydroxy-2,6-dimethylpyridine-3-carboxamide] | > 7.00 | > 7.00 | > 7.00 | > 7.00
10 | CCOc1nc2c(Oc3ccc(NC(=O)c4c(C)ncc(-c5ccc(F)cc5)c4O)cc3F)ccnc2cc1OC [Compound 675, N-[4-[(6-ethoxy-7-methoxy-1,5-naphthyridin-4-yl)oxy]-3-fluorophenyl]-5-(4-fluorophenyl)-4-hydroxy-2-methylpyridine-3-carboxamide] | > 7.00 | > 7.00 | > 7.00 | > 7.00
11 | CCOc1nc2c(Oc3ccc(NC(=O)c4c(COC)nc(C)c(-c5ccc(F)cc5)c4O)cc3F)ccnc2cc1OC [Compound 676, N-[4-[(6-ethoxy-7-methoxy-1,5-naphthyridin-4-yl)oxy]-3-fluorophenyl]-5-(4-fluorophenyl)-4-hydroxy-2-(methoxymethyl)-6-methylpyridine-3-carboxamide] | > 7.00 | > 7.00 | > 7.00 | > 7.00
12 | CCOc1nc2c(Oc3ccc(NC(=O)c4cnc(C)c(-c5ccc(F)cc5C)c4O)cc3F)ccnc2cc1OC [Compound 677, N-[4-[(6-ethoxy-7-methoxy-1,5-naphthyridin-4-yl)oxy]-3-fluorophenyl]-5-(4-fluoro-2-methylphenyl)-4-hydroxy-6-methylpyridine-3-carboxamide] | > 7.00 | > 7.00 | > 7.00 | > 7.00
13 | CCOc1nc2c(Oc3ccc(NC(=O)c4c(C)nc(C)c(-c5ccc(F)cc5C)c4O)cc3F)ccnc2cc1OC [Compound 678, N-[4-[(6-ethoxy-7-methoxy-1,5-naphthyridin-4-yl)oxy]-3-fluorophenyl]-5-(4-fluoro-2-methylphenyl)-4-hydroxy-2,6-dimethylpyridine-3-carboxamide] | > 7.00 | > 7.00 | > 7.00 | > 7.00
14 | COc1cc2nccc(Oc3ccc(NC(=O)c4c(C)c(C)cn(-c5ccc(F)cc5)c4=O)cc3F)c2nc1OC [Compound 679, N-[4-[(6,7-dimethoxy-1,5-naphthyridin-4-yl)oxy]-3-fluorophenyl]-1-(4-fluorophenyl)-4,5-dimethyl-2-oxopyridine-3-carboxamide] | > 7.00 | > 7.00 | > 7.00 | > 7.00
15 | COc1cc2nccc(Oc3ccc(NC(=O)c4c(C)c(C)cn(-c5ccc(F)cc5)c4=O)cc3)c2nc1OC [Compound 680, N-[4-[(6,7-dimethoxy-1,5-naphthyridin-4-yl)oxy]phenyl]-1-(4-fluorophenyl)-4,5-dimethyl-2-oxopyridine-3-carboxamide] | > 7.00 | > 7.00 | > 7.00 | > 7.00
16 | COc1cc2nccc(Oc3ccc(NC(=O)c4c(C)nc(C)c(-c5ccc(F)cc5C)c4O)cc3)c2nc1OC [Compound 681, N-[4-[(6,7-dimethoxy-1,5-naphthyridin-4-yl)oxy]phenyl]-5-(4-fluoro-2-methylphenyl)-4-hydroxy-2,6-dimethylpyridine-3-carboxamide] | > 7.00 | > 7.00 | > 7.00 | > 7.00
17 | COc1cnc2c(Oc3ccc(NC(=O)c4c(C)nc(C)c(-c5ccc(F)cc5C)c4O)cc3)ccnc2c1 [Compound 682, 5-(4-fluoro-2-methylphenyl)-4-hydroxy-N-[4-[(7-methoxy-1,5-naphthyridin-4-yl)oxy]phenyl]-2,6-dimethylpyridine-3-carboxamide] | > 7.00 | > 7.00 | > 7.00 | > 7.00
18 | COCCOc1cnc2c(Oc3ccc(NC(=O)c4c(C)nc(C)c(-c5ccc(F)cc5C)c4O)cc3F)ccnc2c1 [Compound 683, N-[3-fluoro-4-[[7-(2-methoxyethoxy)-1,5-naphthyridin-4-yl]oxy]phenyl]-5-(4-fluoro-2-methylphenyl)-4-hydroxy-2,6-dimethylpyridine-3-carboxamide] | > 7.00 | > 7.00 | > 7.00 | > 7.00
19 | COc1cc2nccc(Oc3ccc(NC(=O)c4nc(C)cn(-c5ccc(F)cc5)c4=O)cc3F)c2nc1OC [Compound 684, N-[4-[(6,7-dimethoxy-1,5-naphthyridin-4-yl)oxy]-3-fluorophenyl]-4-(4-fluorophenyl)-6-methyl-3-oxopyrazine-2-carboxamide] | > 7.00 | < 6.52 | > 7.00 | > 7.00
20 | COc1cnc2c(Oc3ccc(NC(=O)c4cn(C)c(C5CC5)c(-c5ccc(F)cc5)c4=O)cc3F)ccnc2c1 [Compound 685, 6-cyclopropyl-N-[3-fluoro-4-[(7-methoxy-1,5-naphthyridin-4-yl)oxy]phenyl]-5-(4-fluorophenyl)-1-methyl-4-oxopyridine-3-carboxamide] | > 7.00 | < 6.52 | > 7.00 | > 7.00
